Test results: article PMC5218480 (PLoS ONE, 2017)

System: MV-4-11 cells
Experiment: Gene expression microarray analysis (Affymetrix PrimeView) and GSEA
Format: cell-based, human
Parameters: RFU PODN (11730768_x_at) / Fold change /veh PODN (11730768_x_at) / RFU LINC00158 (11744669_a_at) / Fold change /veh LINC00158 (11744669_a_at) / RFU DUSP10 (11751237_a_at) / Fold change /veh DUSP10 (11751237_a_at) / RFU ID3 (11757404_x_at) / Fold change /veh ID3 (11757404_x_at) / RFU PLEKHG5 (11737974_s_at) / Fold change /veh PLEKHG5 (11737974_s_at) / RFU LRRC4B (11730491_at) / Fold change /veh LRRC4B (11730491_at) / RFU GIMAP4 (11747438_a_at) / Fold change /veh GIMAP4 (11747438_a_at) / RFU KRT8 (11758183_x_at) / Fold change /veh KRT8 (11758183_x_at) / RFU CNN1 (11734310_a_at) / Fold change /veh CNN1 (11734310_a_at) / RFU VPS37D (11726825_at) / Fold change /veh VPS37D (11726825_at) / RFU C10orf10 (11716522_x_at) / Fold change /veh C10orf10 (11716522_x_at) / RFU KIR2DL2 /// KIR2DL4 /// KIR2DL5A /// KIR2DL5B /// KIR2DS1 /// KIR2DS2 /// KIR2DS3 /// KIR2DS4 /// KIR3DL3 /// KIR3DL3 /// KIR3DS1 (11738374_at) / Fold change /veh KIR2DL2 /// KIR2DL4 /// KIR2DL5A /// KIR2DL5B /// KIR2DS1 /// KIR2DS2 /// KIR2DS3 /// KIR2DS4 /// KIR3DL3 /// KIR3DL3 /// KIR3DS1 (11738374_at) / RFU C1QL1 (11718748_at) / Fold change /veh C1QL1 (11718748_at) / RFU TMPRSS4 (11747572_a_at) / Fold change /veh TMPRSS4 (11747572_a_at) / RFU HAMP (11756126_x_at) / Fold change /veh HAMP (11756126_x_at) / RFU RNFT2 (11725882_a_at) / Fold change /veh RNFT2 (11725882_a_at) / RFU NR4A2 (11747474_a_at) / Fold change /veh NR4A2 (11747474_a_at) / RFU ABCC12 (11746883_a_at) / Fold change /veh ABCC12 (11746883_a_at) / RFU TMEM136 (11760407_x_at) / Fold change /veh TMEM136 (11760407_x_at) / RFU CLDN22 /// WWC2 (11732394_at) / Fold change /veh CLDN22 /// WWC2 (11732394_at) / RFU HLA-DPB1 (11760878_x_at) / Fold change /veh HLA-DPB1 (11760878_x_at) / RFU SPINT1 (11716480_a_at) / Fold change /veh SPINT1 (11716480_a_at) / RFU GAP43 (11754022_s_at) / Fold change /veh GAP43 (11754022_s_at) / RFU A4GNT (11735810_at) / Fold change /veh A4GNT (11735810_at) / RFU PRB3 (11715151_x_at) / Fold change /veh PRB3 (11715151_x_at) / RFU TUBB4B (11761932_at) / Fold change /veh TUBB4B (11761932_at) / RFU CAPN14 (11732068_a_at) / Fold change /veh CAPN14 (11732068_a_at) / RFU TMCC2 (11721928_a_at) / Fold change /veh TMCC2 (11721928_a_at) / RFU IRGQ (11745062_a_at) / Fold change /veh IRGQ (11745062_a_at) / RFU FAM174B (11720279_a_at) / Fold change /veh FAM174B (11720279_a_at) / RFU TMPRSS4 (11748680_a_at) / Fold change /veh TMPRSS4 (11748680_a_at) / RFU FAM212B (11763350_a_at) / Fold change /veh FAM212B (11763350_a_at) / RFU PLEKHG5 (11743358_a_at) / Fold change /veh PLEKHG5 (11743358_a_at) / RFU ZSCAN30 (11745921_a_at) / Fold change /veh ZSCAN30 (11745921_a_at) / RFU CMKLR1 (11741424_a_at) / Fold change /veh CMKLR1 (11741424_a_at) / RFU LOC101060620 /// MAPK8IP1 (11723275_at) / Fold change /veh LOC101060620 /// MAPK8IP1 (11723275_at) / RFU SPTSSB (11747773_x_at) / Fold change /veh SPTSSB (11747773_x_at) / RFU PRSS12 (11739890_at) / Fold change /veh PRSS12 (11739890_at) / RFU BIN1 (11741810_x_at) / Fold change /veh BIN1 (11741810_x_at) / RFU WNT11 (11732464_a_at) / Fold change /veh WNT11 (11732464_a_at) / RFU C10orf10 (11716521_a_at) / Fold change /veh C10orf10 (11716521_a_at) / RFU C5orf56 (11738089_at) / Fold change /veh C5orf56 (11738089_at) / RFU CYB561 (11721691_x_at) / Fold change /veh CYB561 (11721691_x_at) / RFU ANKRD19P (11752326_a_at) / Fold change /veh ANKRD19P (11752326_a_at) / RFU OR2T12 /// OR2T33 /// OR2T8 (11738714_s_at) / Fold change /veh OR2T12 /// OR2T33 /// OR2T8 (11738714_s_at) / RFU VCAN (11748164_a_at) / Fold change /veh VCAN (11748164_a_at) / RFU JSRP1 (11732532_at) / Fold change /veh JSRP1 (11732532_at) / RFU KRTAP10-11 (11738290_x_at) / Fold change /veh KRTAP10-11 (11738290_x_at) / RFU MYO3A (11730013_a_at) / Fold change /veh MYO3A (11730013_a_at) / RFU EBF3 (11725865_a_at) / Fold change /veh EBF3 (11725865_a_at) / RFU CAMK2N1 (11719241_x_at) / Fold change /veh CAMK2N1 (11719241_x_at) / RFU C5orf56 (11738088_a_at) / Fold change /veh C5orf56 (11738088_a_at) / RFU OLFML3 (11715873_a_at) / Fold change /veh OLFML3 (11715873_a_at) / RFU LOC100653217 /// NTM (11731650_a_at) / Fold change /veh LOC100653217 /// NTM (11731650_a_at) / RFU MAPK11 (11762145_a_at) / Fold change /veh MAPK11 (11762145_a_at) / RFU FIZ1 (11724087_x_at) / Fold change /veh FIZ1 (11724087_x_at) / RFU OASL (11726364_x_at) / Fold change /veh OASL (11726364_x_at) / RFU SOX15 (11748057_x_at) / Fold change /veh SOX15 (11748057_x_at) / RFU CD79A (11719716_a_at) / Fold change /veh CD79A (11719716_a_at) / RFU HIST1H1D (11736915_at) / Fold change /veh HIST1H1D (11736915_at) / RFU CASKIN2 (11723855_a_at) / Fold change /veh CASKIN2 (11723855_a_at) / RFU LOC730098 (11760151_x_at) / Fold change /veh LOC730098 (11760151_x_at) / RFU OR4N2 (11742367_at) / Fold change /veh OR4N2 (11742367_at) / RFU PRRT2 (11749266_a_at) / Fold change /veh PRRT2 (11749266_a_at) / RFU SNX32 (11753110_a_at) / Fold change /veh SNX32 (11753110_a_at) / RFU CDHR5 (11726645_a_at) / Fold change /veh CDHR5 (11726645_a_at) / RFU RCAN1 (11760418_a_at) / Fold change /veh RCAN1 (11760418_a_at) / RFU FAM167A (11723789_a_at) / Fold change /veh FAM167A (11723789_a_at) / RFU FAM26E (11764081_at) / Fold change /veh FAM26E (11764081_at) / RFU ISYNA1 (11749810_s_at) / Fold change /veh ISYNA1 (11749810_s_at) / RFU ACY1 (11761880_at) / Fold change /veh ACY1 (11761880_at) / RFU 11764098_at / Fold change /veh 11764098_at / RFU SAMD14 (11745864_x_at) / Fold change /veh SAMD14 (11745864_x_at) / RFU NPB (11741838_a_at) / Fold change /veh NPB (11741838_a_at) / RFU TMPRSS6 (11731388_a_at) / Fold change /veh TMPRSS6 (11731388_a_at) / RFU KRTAP10-2 (11738614_at) / Fold change /veh KRTAP10-2 (11738614_at) / RFU ARHGAP8 /// PRR5-ARHGAP8 (11727945_x_at) / Fold change /veh ARHGAP8 /// PRR5-ARHGAP8 (11727945_x_at) / RFU KRTAP5-7 /// NADSYN1 (11734609_at) / Fold change /veh KRTAP5-7 /// NADSYN1 (11734609_at) / RFU RASL12 (11751679_a_at) / Fold change /veh RASL12 (11751679_a_at) / RFU CDKN2B (11736163_a_at) / Fold change /veh CDKN2B (11736163_a_at) / RFU PRF1 (11729649_at) / Fold change /veh PRF1 (11729649_at) / RFU, ZNF638 /// ZNF638-IT1 / Fold change vs veh, ZNF638 /// ZNF638-IT1 / RFU, PANK3 / Fold change vs veh, PANK3 / RFU, SH3YL1 / Fold change vs veh, SH3YL1 / RFU, ZEB2 / Fold change vs veh, ZEB2 / RFU, NRIP1 / Fold change vs veh, NRIP1 / RFU, PTTG1IP / Fold change vs veh, PTTG1IP / RFU, CAPN2 / Fold change vs veh, CAPN2 / RFU, MED14 / Fold change vs veh, MED14 / RFU, SNORA58 / Fold change vs veh, SNORA58 / RFU, C1orf63 / Fold change vs veh, C1orf63 / RFU, LRRFIP1 / Fold change vs veh, LRRFIP1 / RFU, NDUFAF7 / Fold change vs veh, NDUFAF7 / RFU, SLC12A2 / Fold change vs veh, SLC12A2 / RFU, IBTK / Fold change vs veh, IBTK / RFU, ESF1 / Fold change vs veh, ESF1 / Fold change vs veh, TMEM50B / RFU, TAOK1 / Fold change vs veh, TAOK1 / RFU, ACBD3 / Fold change vs veh, ACBD3 / RFU, TMA16 / Fold change vs veh, TMA16 / RFU, RWDD3 / Fold change vs veh, RWDD3 / RFU, BCAT1 / Fold change vs veh, BCAT1 / RFU, EDEM3 / Fold change vs veh, EDEM3 / RFU, TMEM33 / Fold change vs veh, TMEM33 / RFU, WDR75 / Fold change vs veh, WDR75 / RFU, AHCTF1 / Fold change vs veh, AHCTF1 / RFU, TFRC / Fold change vs veh, TFRC / RFU, ZDHHC17 / Fold change vs veh, ZDHHC17 / RFU, NOM1 / Fold change vs veh, NOM1 / RFU, ARL8B / Fold change vs veh, ARL8B / RFU, ZBTB11 / Fold change vs veh, ZBTB11 / RFU, TAMM41 / Fold change vs veh, TAMM41 / RFU, KIAA1704 /// LOC100996395 / Fold change vs veh, KIAA1704 /// LOC100996395 / RFU, ING1 / Fold change vs veh, ING1 / RFU, TRMT61B / Fold change vs veh, TRMT61B / RFU, FUBP3 / Fold change vs veh, FUBP3 / RFU, TP53 / Fold change vs veh, TP53 / RFU, TNKS2 / Fold change vs veh, TNKS2 / RFU, ZFP14 / Fold change vs veh, ZFP14 / RFU, ACTR2 / Fold change vs veh, ACTR2 / RFU, PPP3R1 / Fold change vs veh, PPP3R1 / RFU, PIK3R1 / Fold change vs veh, PIK3R1 / RFU, HNRNPA1 / Fold change vs veh, HNRNPA1 / RFU, RNF170 / Fold change vs veh, RNF170 / RFU, ZNF28 / Fold change vs veh, ZNF28 / RFU, RNGTT / Fold change vs veh, RNGTT / RFU, OGT / Fold change vs veh, OGT / RFU, BRD1 / Fold change vs veh, BRD1 / RFU, MARS / Fold change vs veh, MARS / RFU, ZNF655 / Fold change vs veh, ZNF655 / RFU, FAHD1 / Fold change vs veh, FAHD1 / RFU, BDP1 / Fold change vs veh, BDP1 / RFU, LRRCC1 / Fold change vs veh, LRRCC1 / RFU, ARID1A / Fold change vs veh, ARID1A / RFU, ZNF146 / Fold change vs veh, ZNF146 / RFU, ZNF330 / Fold change vs veh, ZNF330 / RFU, GPN3 / Fold change vs veh, GPN3 / RFU, C9orf123 / Fold change vs veh, C9orf123 / RFU, N4BP2L2 / Fold change vs veh, N4BP2L2 / RFU, ARFIP1 / Fold change vs veh, ARFIP1 / RFU, FAM179B / Fold change vs veh, FAM179B / RFU, BCL10 / Fold change vs veh, BCL10 / RFU, UHRF1BP1L / Fold change vs veh, UHRF1BP1L / RFU, BET1 / Fold change vs veh, BET1 / RFU, CNOT2 / Fold change vs veh, CNOT2 / RFU, ZNF268 / Fold change vs veh, ZNF268 / Fold change vs veh, ZNF507 / RFU, DGCR2 / Fold change vs veh, DGCR2 / RFU, WDSUB1 / Fold change vs veh, WDSUB1 / Fold change vs veh, HSP90B1 /// MIR3652 / RFU, ADSS / Fold change vs veh, ADSS / RFU, GK / Fold change vs veh, GK / RFU, ZNF148 / Fold change vs veh, ZNF148 / RFU, TAF9 / Fold change vs veh, TAF9 / RFU, SLC1A5 / Fold change vs veh, SLC1A5 / RFU, SLMO2 / Fold change vs veh, SLMO2 / RFU, ABCC4 / Fold change vs veh, ABCC4 / RFU, LOC101060439 /// RAP1B / Fold change vs veh, LOC101060439 /// RAP1B / RFU, RFX7 / Fold change vs veh, RFX7 / RFU, GTPBP10 / Fold change vs veh, GTPBP10 / RFU, CNEP1R1 / Fold change vs veh, CNEP1R1 / RFU, BIVM-ERCC5 /// ERCC5 / Fold change vs veh, BIVM-ERCC5 /// ERCC5 / RFU, ILF3 / Fold change vs veh, ILF3 / RFU 11762660_at / Fold change /veh 11762660_at / RFU VCAN (11757783_s_at) / Fold change /veh VCAN (11757783_s_at) / RFU DDX43 (11728927_at) / Fold change /veh DDX43 (11728927_at) / RFU KRT8 (11758188_x_at) / Fold change /veh KRT8 (11758188_x_at) / RFU NKD1 (11759106_at) / Fold change /veh NKD1 (11759106_at) / RFU SRD5A1 (11742802_a_at) / Fold change /veh SRD5A1 (11742802_a_at) / RFU TPSAB1 /// TPSB2 (11721975_s_at) / Fold change /veh TPSAB1 /// TPSB2 (11721975_s_at) / RFU GSTM3 (11746129_a_at) / Fold change /veh GSTM3 (11746129_a_at) / RFU IL23R (11737362_x_at) / Fold change /veh IL23R (11737362_x_at) / RFU TMEM51 (11727254_a_at) / Fold change /veh TMEM51 (11727254_a_at) / RFU PIWIL2 (11732686_x_at) / Fold change /veh PIWIL2 (11732686_x_at) / RFU ORM1 (11744905_x_at) / Fold change /veh ORM1 (11744905_x_at) / RFU CCDC152 (11743942_at) / Fold change /veh CCDC152 (11743942_at) / RFU ECM1 (11717891_a_at) / Fold change /veh ECM1 (11717891_a_at) / RFU IL23R (11748794_a_at) / Fold change /veh IL23R (11748794_a_at) / RFU TNFAIP8L3 (11732012_x_at) / Fold change /veh TNFAIP8L3 (11732012_x_at) / RFU MBOAT4 (11741988_at) / Fold change /veh MBOAT4 (11741988_at) / RFU 11764193_at / Fold change /veh 11764193_at / RFU TMEM53 (11763286_at) / Fold change /veh TMEM53 (11763286_at) / RFU MAGEB2 (11727129_at) / Fold change /veh MAGEB2 (11727129_at) / RFU TMEM200A (11744735_a_at) / Fold change /veh TMEM200A (11744735_a_at) / RFU CCDC152 (11751479_a_at) / Fold change /veh CCDC152 (11751479_a_at) / RFU FAM211A (11726209_a_at) / Fold change /veh FAM211A (11726209_a_at) / RFU RGS16 (11746705_a_at) / Fold change /veh RGS16 (11746705_a_at) / RFU VCAN (11755009_s_at) / Fold change /veh VCAN (11755009_s_at) / RFU RHOB (11743442_s_at) / Fold change /veh RHOB (11743442_s_at) / RFU RGS16 (11720943_a_at) / Fold change /veh RGS16 (11720943_a_at) / RFU RGS16 (11720944_at) / Fold change /veh RGS16 (11720944_at) / RFU, VPS4B / Fold change vs veh, VPS4B / RFU, CREB1 / Fold change vs veh, CREB1 / RFU, DNAJC13 / Fold change vs veh, DNAJC13 / RFU, GNAQ / Fold change vs veh, GNAQ / RFU, CDK5R1 / Fold change vs veh, CDK5R1 / RFU, ZRANB3 / Fold change vs veh, ZRANB3 / RFU, CUL4A / Fold change vs veh, CUL4A / RFU, CCNY / Fold change vs veh, CCNY / RFU, UFL1 / Fold change vs veh, UFL1 / RFU, COG3 / Fold change vs veh, COG3 / RFU, DIAPH2 / Fold change vs veh, DIAPH2 / RFU, SKA2 / Fold change vs veh, SKA2 / RFU, AFF3 / Fold change vs veh, AFF3 / RFU, LMF1 / Fold change vs veh, LMF1 / RFU, IPO11 / Fold change vs veh, IPO11 / RFU, DFFB / Fold change vs veh, DFFB / RFU, FOXP1 / Fold change vs veh, FOXP1 / RFU, CARD8 / Fold change vs veh, CARD8 / RFU, STRN3 / Fold change vs veh, STRN3 / RFU, ADK / Fold change vs veh, ADK / RFU, RASSF2 / Fold change vs veh, RASSF2 / RFU, WIPF1 / Fold change vs veh, WIPF1 / RFU, LARP1B / Fold change vs veh, LARP1B / RFU, RASA1 / Fold change vs veh, RASA1 / RFU, RB1 / Fold change vs veh, RB1 / RFU, PPFIA1 / Fold change vs veh, PPFIA1 / RFU, MAT2A / Fold change vs veh, MAT2A / RFU, CCT5 / Fold change vs veh, CCT5 / RFU, WDR92 / Fold change vs veh, WDR92 / RFU, CUX1 / Fold change vs veh, CUX1 / RFU, TTC7A / Fold change vs veh, TTC7A / RFU, TMEM135 / Fold change vs veh, TMEM135 / RFU, DEPTOR / Fold change vs veh, DEPTOR / RFU, CPM / Fold change vs veh, CPM / RFU, DNAJB6 / Fold change vs veh, DNAJB6 / RFU, CACNA2D3 / Fold change vs veh, CACNA2D3 / RFU, DTX4 / Fold change vs veh, DTX4 / RFU, TFCP2 / Fold change vs veh, TFCP2 / RFU, GMCL1 /// GMCL1P1 / Fold change vs veh, GMCL1 /// GMCL1P1 / RFU, AEBP2 / Fold change vs veh, AEBP2 / RFU, SNHG1 /// SNORD22 /// SNORD25 /// SNORD26 /// SNORD27 /// SNORD28 /// SNORD29 /// SNORD31 / Fold change vs veh, SNHG1 /// SNORD22 /// SNORD25 /// SNORD26 /// SNORD27 /// SNORD28 /// SNORD29 /// SNORD31 / Fold change (Aza/veh), C12orf56 (ProbeSet 11735607_a_at) / Fold change (ACY-1035/veh), C12orf56 (ProbeSet 11735607_a_at) / Fold change (Aza/veh), FGFR1OP (ProbeSet 11751329_s_at) / Fold change (ACY-1035/veh), FGFR1OP (ProbeSet 11751329_s_at) / Fold change (Aza/veh), VPS36 (ProbeSet 11739960_a_at) / Fold change (ACY-1035/veh), VPS36 (ProbeSet 11739960_a_at) / RFU SYPL1 (11715823_x_at) / Fold change /veh SYPL1 (11715823_x_at) / RFU IGFBP7 (11715501_s_at) / Fold change /veh IGFBP7 (11715501_s_at) / RFU REEP3 (11722064_at) / Fold change /veh REEP3 (11722064_at) / RFU IGLL1 (11728026_x_at) / Fold change /veh IGLL1 (11728026_x_at): dose or concentration left out as unconfirmed
Details: MV-4-11 cells, 48 hours

In the case of Nc1ncn([C@@H]2O[C@H](CO)[C@@H](O)[C@H]2O)c(=O)n1 [azacitidine], the “RFU MAGEB2 (11727129_at)” value was 14.25 RFU.
